Biological target: T1, rat B1R (bradykinin receptor 1) (Rattus norvegicus, UniProt P97583)
T1 construct: expressed in transfected cells; host or cells: CHO K1 cells
T1 sequence (P97583 1-337): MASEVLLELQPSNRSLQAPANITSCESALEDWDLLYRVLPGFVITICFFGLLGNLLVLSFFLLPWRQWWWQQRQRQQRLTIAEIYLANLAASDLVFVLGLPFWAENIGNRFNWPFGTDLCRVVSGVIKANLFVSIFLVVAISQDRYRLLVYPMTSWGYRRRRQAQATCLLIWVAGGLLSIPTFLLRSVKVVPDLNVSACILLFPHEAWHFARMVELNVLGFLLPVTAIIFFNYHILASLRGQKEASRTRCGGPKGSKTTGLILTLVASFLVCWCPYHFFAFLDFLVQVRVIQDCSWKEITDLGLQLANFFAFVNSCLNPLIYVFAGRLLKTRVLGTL
Assay: FLIPR Ca2+ assay (Fluo-4) on CHO K1 cells stably transfected with the B1R gene of the rat (rB1R cells): % inhibition at 10 μM / IC50, agonist Des-Arg9-bradykinin
Format: cell-based
Conditions: CHO-K1, rat B1R
Method in brief: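 Peak fluorescence counts read on FLIPR (λex 488, λem 540 nm) after two additions: compound first, then agonist at EC80 after 10–20 min. Human line challenged with Lys-Des-Arg9-bradykinin, rat line with Des-Arg9-bradykinin. Suppression of Ca2+ inflow expressed as % of maximum inhibition.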

Structure (SMILES) | inhibition at 10 µM
O=C(NC1CCc2ccc(C(=O)N3CCC4(CCN(C(=O)Nc5ccc(F)cc5F)CC4)CC3)cc21)c1ccccc1Cl (stereo not shown) [IND_CC-711, 3-[3-[(2-Chloro-benzoyl)amino]-2,3-dihydro-1H-indene-5-carbonyl]-N-(2,4-difluoro-phenyl)-3,9-diazaspiro[5.5]undecane-9-carboxylic acid amide] | 94%
CCCNC(=O)N1CCC2(CC1)CCN(C(=O)c1ccc3c(c1)C(N(C(=O)c1ccccc1Cl)C1CC1)CC3)C2 (stereo not shown) [IND_CC-712, 2-[3-[(2-Chloro-benzoyl)-cyclopropyl-amino]-2,3-dihydro-1H-indene-5-carbonyl]-N-propyl-2,8-diazaspiro[4.5]decane-8-carboxylic acid amide] | 76%
O=C(Nc1ccc(F)c(Cl)c1)N1CCC2(CC1)CCN(C(=O)c1ccc3c(c1)C(N(C(=O)c1ccccc1Cl)C1CC1)CC3)C2 (stereo not shown) [IND_CC-713, 2-[3-[(2-Chloro-benzoyl)-cyclopropyl-amino]-2,3-dihydro-1H-indene-5-carbonyl]-N-(3-chloro-4-fluoro-phenyl)-2,8-diazaspiro[4.5]decane-8-carboxylic acid amide] | 77%
O=C(Nc1ccc(Cl)cc1C(F)(F)F)N1CCC2(CC1)CCN(C(=O)c1ccc3c(c1)C(N(C(=O)c1ccccc1Cl)C1CC1)CC3)C2 (stereo not shown) [IND_CC-714, 2-[3-[(2-Chloro-benzoyl)-cyclopropyl-amino]-2,3-dihydro-1H-indene-5-carbonyl]-N-[4-chloro-2-(trifluoromethyl)-phenyl]-2,8-diazaspiro[4.5]decane-8-carboxylic acid amide] | 51%
N#Cc1cccc(NC(=O)N2CCC3(CC2)CCN(C(=O)c2ccc4c(c2)C(N(C(=O)c2ccccc2Cl)C2CC2)CC4)C3)c1 (stereo not shown) [IND_CC-715, 2-[3-[(2-Chloro-benzoyl)-cyclopropyl-amino]-2,3-dihydro-1H-indene-5-carbonyl]-N-(3-cyano-phenyl)-2,8-diazaspiro[4.5]decane-8-carboxylic acid amide] | 79%
O=C(NCc1ccccc1)N1CCC2(CC1)CCN(C(=O)c1ccc3c(c1)C(N(C(=O)c1ccccc1Cl)C1CC1)CC3)C2 (stereo not shown) [IND_CC-716, N-Benzyl-2-[3-[(2-chloro-benzoyl)-cyclopropyl-amino]-2,3-dihydro-1H-indene-5-carbonyl]-2,8-diazaspiro[4.5]decane-8-carboxylic acid amide] | 80%
O=C(NC1CCCCC1)N1CCC2(CC1)CCN(C(=O)c1ccc3c(c1)C(N(C(=O)c1ccccc1Cl)C1CC1)CC3)C2 (stereo not shown) [IND_CC-717, 2-[3-[(2-Chloro-benzoyl)-cyclopropyl-amino]-2,3-dihydro-1H-indene-5-carbonyl]-N-cyclohexyl-2,8-diazaspiro[4.5]decane-8-carboxylic acid amide] | 72%
O=C(Nc1c(Cl)cccc1Cl)N1CCC2(CC1)CCN(C(=O)c1ccc3c(c1)C(N(C(=O)c1ccccc1Cl)C1CC1)CC3)C2 (stereo not shown) [IND_CC-718, 2-[3-[(2-Chloro-benzoyl)-cyclopropyl-amino]-2,3-dihydro-1H-indene-5-carbonyl]-N-(2,6-dichloro-phenyl)-2,8-diazaspiro[4.5]decane-8-carboxylic acid amide] | 52%
O=C(Nc1ccc(F)cc1F)N1CCC2(CC1)CCN(C(=O)c1ccc3c(c1)C(N(C(=O)c1ccccc1Cl)C1CC1)CC3)C2 (stereo not shown) [IND_CC-719, 2-[3-[(2-Chloro-benzoyl)-cyclopropyl-amino]-2,3-dihydro-1H-indene-5-carbonyl]-N-(2,4-difluoro-phenyl)-2,8-diazaspiro[4.5]decane-8-carboxylic acid amide] | 59%
O=C(Nc1cc(F)cc(F)c1)N1CCC2(CC1)CCN(C(=O)c1ccc3c(c1)C(N(C(=O)c1ccccc1Cl)C1CC1)CC3)C2 (stereo not shown) [IND_CC-720, 2-[3-[(2-Chloro-benzoyl)-cyclopropyl-amino]-2,3-dihydro-1H-indene-5-carbonyl]-N-(3,5-difluoro-phenyl)-2,8-diazaspiro[4.5]decane-8-carboxylic acid amide] | 80%
O=C(NCc1ccc(Cl)c(Cl)c1)N1CCC2(CC1)CCN(C(=O)c1ccc3c(c1)C(N(C(=O)c1ccccc1Cl)C1CC1)CC3)C2 (stereo not shown) [IND_CC-721, 2-[3-[(2-Chloro-benzoyl)-cyclopropyl-amino]-2,3-dihydro-1H-indene-5-carbonyl]-N-[(3,4-dichlorophenyl)-methyl]-2,8-diazaspiro[4.5]decane-8-carboxylic acid amide] | 70%
Cc1c(CN2CCC3(CC2)CCN(C(=O)c2ccc4c(c2)C(NC(=O)c2cccc(Cl)c2Cl)CC4)C3)cnn1C (stereo not shown) [IND_CC-722, 2,3-Dichloro-N-[6-[8-[(1,5-dimethyl-1H-pyrazol-4-yl)-methyl]-2,8-diazaspiro[4.5]decane-2-carbonyl]-2,3-dihydro-1H-inden-1-yl]-benzamide] | 81%
Cc1noc(C)c1CN1CCC2(CC1)CCN(C(=O)c1ccc3c(c1)C(NC(=O)c1cccc(Cl)c1Cl)CC3)C2 (stereo not shown) [IND_CC-723, 2,3-Dichloro-N-[6-[8-[(3,5-dimethyl-isoxazol-4-yl)-methyl]-2,8-diazaspiro[4.5]decane-2-carbonyl]-2,3-dihydro-1H-inden-1-yl]-benzamide] | 55%
N#Cc1ccccc1CN1CCC2(CC1)CCN(C(=O)c1ccc3c(c1)C(NC(=O)c1cccc(Cl)c1Cl)CC3)C2 (stereo not shown) [IND_CC-724, 2,3-Dichloro-N-[6-[8-[(2-cyano-phenyl)-methyl]-2,8-diazaspiro[4.5]decane-2-carbonyl]-2,3-dihydro-1H-inden-1-yl]-benzamide] | 86%
O=C(NC1CCc2ccc(C(=O)N3CCC4(CCN(Cc5c(F)cccc5Cl)CC4)C3)cc21)c1cccc(Cl)c1Cl (stereo not shown) [IND_CC-725, 2,3-Dichloro-N-[6-[8-[(2-chloro-6-fluoro-phenyl)-methyl]-2,8-diazaspiro[4.5]decane-2-carbonyl]-2,3-dihydro-1H-inden-1-yl]-benzamide] | 56%
O=C(NC1CCc2ccc(C(=O)N3CCC4(CCN(Cc5ccc(F)cc5Cl)CC4)CC3)cc21)c1cccc(Cl)c1Cl (stereo not shown) [IND_CC-726, 2,3-Dichloro-N-[6-[9-[(2-chloro-4-fluoro-phenyl)-methyl]-3,9-diazaspiro[5.5]undecane-3-carbonyl]-2,3-dihydro-1H-inden-1-yl]-benzamide] | 67%
O=C(NC1CCc2ccc(C(=O)N3CCC4(CCN(Cc5c(F)cccc5Cl)CC4)CC3)cc21)c1cccc(Cl)c1Cl (stereo not shown) [IND_CC-727, 2,3-Dichloro-N-[6-[9-[(2-chloro-6-fluoro-phenyl)-methyl]-3,9-diazaspiro[5.5]undecane-3-carbonyl]-2,3-dihydro-1H-inden-1-yl]-benzamide] | 74%
Cc1nc(CN2CCC3(CC2)CCN(C(=O)c2ccc4c(c2)C(NC(=O)c2c(C)cccc2Cl)CC4)C3)c[nH]1 (stereo not shown) [IND_CC-728, 2-Chloro-6-methyl-N-[6-[8-[(2-methyl-1H-imidazol-4-yl)-methyl]-2,8-diazaspiro[4.5]decane-2-carbonyl]-2,3-dihydro-1H-inden-1-yl]-benzamide] | 58%
Cc1cccc(Cl)c1C(=O)NC1CCc2ccc(C(=O)N3CCC4(CCN(Cc5cnn(C)c5C)CC4)C3)cc21 (stereo not shown) [IND_CC-729, 2-Chloro-N-[6-[8-[(1,5-dimethyl-1H-pyrazol-4-yl)-methyl]-2,8-diazaspiro-[4.5]decane-2-carbonyl]-2,3-dihydro-1H-inden-1-yl]-6-methyl-benzamide] | 76%
Cc1cccc(Cl)c1C(=O)NC1CCc2ccc(C(=O)N3CCC4(CCN(Cc5c(C)noc5C)CC4)C3)cc21 (stereo not shown) [IND_CC-730, 2-Chloro-N-[6-[8-[(3,5-dimethyl-isoxazol-4-yl)-methyl]-2,8-diazaspiro-[4.5]decane-2-carbonyl]-2,3-dihydro-1H-inden-1-yl]-6-methyl-benzamide] | 75%
Cc1cccc(Cl)c1C(=O)NC1CCc2ccc(C(=O)N3CCC4(CCN(Cc5ccc(C#N)cc5)CC4)C3)cc21 (stereo not shown) [IND_CC-731, 2-Chloro-N-[6-[8-[(4-cyano-phenyl)-methyl]-2,8-diazaspiro[4.5]decane-2-carbonyl]-2,3-dihydro-1H-inden-1-yl]-6-methyl-benzamide] | 83%
Cc1cccc(Cl)c1C(=O)NC1CCc2ccc(C(=O)N3CCC4(CCN(Cc5cccc(C#N)c5)CC4)C3)cc21 (stereo not shown) [IND_CC-732, 2-Chloro-N-[6-[8-[(3-cyano-phenyl)-methyl]-2,8-diazaspiro[4.5]decane-2-carbonyl]-2,3-dihydro-1H-inden-1-yl]-6-methyl-benzamide] | 100%
Cc1cccc(Cl)c1C(=O)NC1CCc2ccc(C(=O)N3CCC4(CCN(Cc5ccccc5C#N)CC4)C3)cc21 (stereo not shown) [IND_CC-733, 2-Chloro-N-[6-[8-[(2-cyano-phenyl)-methyl]-2,8-diazaspiro[4.5]decane-2-carbonyl]-2,3-dihydro-1H-inden-1-yl]-6-methyl-benzamide] | 83%
Cc1cccc(Cl)c1C(=O)NC1CCc2ccc(C(=O)N3CCC4(CCN(Cc5ccc(F)cc5Cl)CC4)C3)cc21 (stereo not shown) [IND_CC-734, 2-Chloro-N-[6-[8-[(2-chloro-4-fluoro-phenyl)-methyl]-2,8-diazaspiro-[4.5]decane-2-carbonyl]-2,3-dihydro-1H-inden-1-yl]-6-methyl-benzamide] | 95%
Cc1cccc(Cl)c1C(=O)NC1CCc2ccc(C(=O)N3CCC4(CCN(Cc5c(F)cccc5Cl)CC4)C3)cc21 (stereo not shown) [IND_CC-735, 2-Chloro-N-[6-[8-[(2-chloro-6-fluoro-phenyl)-methyl]-2,8-diazaspiro-[4.5]decane-2-carbonyl]-2,3-dihydro-1H-inden-1-yl]-6-methyl-benzamide] | 81%

From patent US8455475B2 (Gruenenthal GmbH, priority 2009, dated 2013)
